Measured values published in ChEMBL document CHEMBL1127782, “Non-peptidic inhibitors of human leukocyte elastase. 1. The design and synthesis of pyridone-containing inhibitors” (J Med Chem, 1994).

These molecules were tested against T1, Neutrophil elastase (Homo sapiens, UniProt P08246) (assay: The compound was tested in vitro for ability to inhibit human leukocyte elastase activity).
T1 sequence (P08246 whole entry): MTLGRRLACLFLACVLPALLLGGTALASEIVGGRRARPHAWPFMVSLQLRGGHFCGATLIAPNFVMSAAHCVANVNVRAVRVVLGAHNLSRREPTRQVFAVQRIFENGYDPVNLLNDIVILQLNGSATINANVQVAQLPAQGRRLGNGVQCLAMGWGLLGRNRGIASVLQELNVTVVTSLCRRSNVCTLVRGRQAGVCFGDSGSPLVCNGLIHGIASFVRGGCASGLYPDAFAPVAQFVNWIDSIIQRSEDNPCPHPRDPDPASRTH

Structure (SMILES) | Ki [nM]
CC(C)C(NC(=O)Cn1cc(Cc2ccccc2)cc(NC(=O)C(N)=O)c1=O)C(=O)C(F)(F)F (configuration not stated) | 51
CC(C)C(NC(=O)Cn1cccc(NC(=O)C(=O)O)c1=O)C(=O)C(F)(F)F (configuration not stated) | 350
CC(C)C(NC(=O)Cn1cccc([N+](=O)[O-])c1=O)C(=O)C(F)(F)F (configuration not stated) | 15000
CC(C)C(NC(=O)Cn1cc(Cc2ccc(C(F)(F)F)cc2)cc(NC(=O)OCc2ccccc2)c1=O)C(=O)C(F)(F)F (configuration not stated) | 47
CC(C)C(NC(=O)Cn1cc(Cc2ccc(O)cc2)cc(NC(=O)OCc2ccccc2)c1=O)C(=O)C(F)(F)F (configuration not stated) | 34
COC(=O)c1ccc(Cc2cc(NC(=O)OCc3ccccc3)c(=O)n(CC(=O)NC(C(=O)C(F)(F)F)C(C)C)c2)cc1 (configuration not stated) | 88
CC(C)C(NC(=O)Cn1cc(Cc2ccc(F)cc2)cc(NC(=O)OCc2ccccc2)c1=O)C(=O)C(F)(F)F (configuration not stated) | 71
COC(=O)C(=O)Nc1cccn(CC(=O)NC(C(=O)C(F)(F)F)C(C)C)c1=O (configuration not stated) | 500
CC(C)C(NC(=O)Cn1cccc(NC(=O)C(N)=O)c1=O)C(=O)C(F)(F)F (configuration not stated) | 320
CC(C)C(NC(=O)Cn1cc(Cc2cccc(OC(=O)C(C)(C)C)c2)cc(NC(=O)OCc2ccccc2)c1=O)C(=O)C(F)(F)F (configuration not stated) | 12
CC(C)C(NC(=O)Cn1cc(Cc2cccc(F)c2)cc(NC(=O)OCc2ccccc2)c1=O)C(=O)C(F)(F)F (configuration not stated) | 87
COC(=O)C(=O)Nc1cc(Cc2ccccc2)cn(CC(=O)NC(C(=O)C(F)(F)F)C(C)C)c1=O (configuration not stated) | 70
CC(C)C(NC(=O)Cn1cc(Cc2cccc(O)c2)cc(NC(=O)OCc2ccccc2)c1=O)C(=O)C(F)(F)F (configuration not stated) | 89
CC(=O)Oc1cccc(Cc2cc(NC(=O)OCc3ccccc3)c(=O)n(CC(=O)NC(C(=O)C(F)(F)F)C(C)C)c2)c1 (configuration not stated) | 42
CC(C)C(NC(=O)Cn1cc(Cc2ccccc2)cc(NC(=O)OCc2ccccc2)c1=O)C(=O)C(F)(F)F (configuration not stated) | 40
CCOC(=O)CC(=O)Nc1cccn(CC(=O)NC(C(=O)C(F)(F)F)C(C)C)c1=O (configuration not stated) | 3400
CC(C)C(NC(=O)Cn1cc(Cc2ccccc2)cc(NC(=O)C(=O)O)c1=O)C(=O)C(F)(F)F (configuration not stated) | 48
CC(C)C(NC(=O)Cn1cccc(NC(=O)OCc2ccccc2)c1=O)C(=O)C(F)(F)F (configuration not stated) | 280
CC(C)C(NC(=O)Cn1cccc(N)c1=O)C(=O)C(F)(F)F (configuration not stated) | 2700
CC(C)C(NC(=O)Cn1cc(Cc2ccc(OC(=O)C(C)(C)C)cc2)cc(NC(=O)OCc2ccccc2)c1=O)C(=O)C(F)(F)F (configuration not stated) | 32
CC(C)C(NC(=O)Cn1cccc(NC(=O)CC(=O)O)c1=O)C(=O)C(F)(F)F (configuration not stated) | 2600
CC(C)C(NC(=O)Cn1cc(Cc2cccc(NC(=O)C(F)(F)F)c2)cc(NC(=O)OCc2ccccc2)c1=O)C(=O)C(F)(F)F (configuration not stated) | 36
